Tested on: Heterodera schachtii
Experiment: Heterodera schachtii (sugar beet cyst nematode), nematicide, contact activity: juvenile paralysis in 16-well assay plates
Type: in vivo
Conditions: 200 ppm, approx. 500 juveniles per well, 24 hours incubation at 25° C. in darkness, read-out: nematode immobilization compared to the untreated control
Method: Heterodera schachtii (Sugar Beet Cyst Nematode), Nematicide, Contact Activity
The tested application rate of each compound was 200 ppm. All solutions were brought to a concentration of 400 ppm, respectively, as they were subsequently diluted by adding the equivalent amount of water containing juvenile nematodes. After preparation of the suspensions, 1 ml of each suspension and concentration was transferred to 16-well assay plates with a total of three replicates per treatment. Approximately 500 juveniles of Heterodera schachtii were added in 1 ml of water to each well. Nematodes in water served as controls. The plates were placed in a dark box and stored at room temperature. Nematode paralysis was determined after 24 hours incubation at 25° C. in darkness.

| Structure (SMILES) | pest or weed control at 200 ppm [%] |
| --- | --- |
| Cc1ncccc1C(=O)N[C@H]1CC[C@H]1c1ccc(Cl)cc1Cl [Compound 61.7, N-[(1S,2S)-2-(2,4-dichlorophenyl)cyclobutyl]-2-methylpyridine-3-carboxamide] | > 75 |
| O=C(N[C@H]1CC[C@H]1c1ccc(Cl)cc1Cl)c1ccccc1Br [Compound 61.8, 2-bromo-N-[(1S,2S)-2-(2,4-dichlorophenyl)cyclobutyl]benzamide] | > 75 |
| O=C(N[C@H]1CC[C@H]1c1ccc(Cl)cc1)c1c(F)cccc1C(F)(F)F [Compound 61.41, N-[(1S,2S)-2-(4-chlorophenyl)cyclobutyl]-2-fluoro-6-(trifluoromethyl)benzamide] | > 75 |
| O=C(N[C@H]1CC[C@H]1c1ccc(Cl)cc1Cl)c1ncccc1Br [Compound 61.60, 3-bromo-N-[(1S,2S)-2-(2,4-dichlorophenyl)cyclobutyl]pyridine-2-carboxamide] | > 75 |
| O=C(N[C@H]1CC[C@H]1c1ccc(Cl)cc1Cl)c1ccsc1C(F)(F)F [Compound 61.97, N-[(1S,2S)-2-(2,4-dichlorophenyl)cyclobutyl]-2-(trifluoromethyl)thiophene-3-carboxamide] | > 75 |
| O=C(N[C@H]1CC[C@H]1c1ccc(Cl)cc1Cl)c1ncsc1Br [Compound 61.98, 5-bromo-N-[(1S,2S)-2-(2,4-dichlorophenyl)cyclobutyl]-1,3-thiazole-4-carboxamide] | > 75 |
| Cc1cccnc1C(=O)N[C@H]1CC[C@H]1c1ccc(F)cc1F [Compound 61.108, N-[(1S,2S)-2-(2,4-difluorophenyl)cyclobutyl]-3-methylpyridine-2-carboxamide] | > 75 |
| Cc1ccccc1C(=O)N[C@H]1CC[C@H]1c1ccc(F)cc1F [Compound 61.109, N-[(1S,2S)-2-(2,4-difluorophenyl)cyclobutyl]-2-methylbenzamide] | > 75 |
| O=C(N[C@H]1CC[C@H]1c1ccc(F)cc1F)c1ncccn1 [Compound 61.110, N-[(1S,2S)-2-(2,4-difluorophenyl)cyclobutyl]pyrimidine-2-carboxamide] | > 75 |
| O=C(N[C@H]1CC[C@H]1c1ccc(F)cc1F)c1ccccc1Cl [Compound 61.113, 2-chloro-N-[(1S,2S)-2-(2,4-difluorophenyl)cyclobutyl]benzamide] | > 75 |
| O=C(N[C@H]1CC[C@H]1c1ccc(F)cc1F)c1cnccc1C(F)(F)F [Compound 61.114, N-[(1S,2S)-2-(2,4-difluorophenyl)cyclobutyl]-4-(trifluoromethyl)pyridine-3-carboxamide] | > 75 |
| O=C(N[C@H]1CC[C@H]1c1ccc(F)cc1F)c1ccccc1Br [Compound 61.116, 2-bromo-N-[(1S,2S)-2-(2,4-difluorophenyl)cyclobutyl]benzamide] | > 75 |
| O=C(N[C@H]1CC[C@H]1c1ccc(F)cc1F)c1c(F)cccc1Cl [Compound 61.117, 2-chloro-N-[(1S,2S)-2-(2,4-difluorophenyl)cyclobutyl]-6-fluorobenzamide] | > 75 |
| Cc1cccc(F)c1C(=O)N[C@H]1CC[C@H]1c1ccc(F)cc1F [Compound 61.118, N-[(1S,2S)-2-(2,4-difluorophenyl)cyclobutyl]-2-fluoro-6-methylbenzamide] | > 75 |
| Cc1nccnc1C(=O)N[C@H]1CC[C@H]1c1ccc(F)cc1F [Compound 61.119, N-[(1S,2S)-2-(2,4-difluorophenyl)cyclobutyl]-3-methylpyrazine-2-carboxamide] | > 75 |
| O=C(N[C@H]1CC[C@H]1c1ccc(F)cc1F)c1ccccc1F [Compound 61.121, N-[(1S,2S)-2-(2,4-difluorophenyl)cyclobutyl]-2-fluorobenzamide] | > 75 |
| O=C(N[C@H]1CC[C@H]1c1ccc(F)cc1F)c1cncnc1C(F)(F)F [Compound 61.122, N-[(1S,2S)-2-(2,4-difluorophenyl)cyclobutyl]-4-(trifluoromethyl)pyrimidine-5-carboxamide] | > 75 |
| O=C(N[C@H]1CC[C@H]1c1ccc(F)cc1F)c1ncccc1F [Compound 61.124, N-[(1S,2S)-2-(2,4-difluorophenyl)cyclobutyl]-3-fluoropyridine-2-carboxamide] | > 75 |

| Structure (SMILES) | pest or weed control at 200 ppm [%] |
| --- | --- |
| O=C(N[C@H]1CC[C@H]1c1ccc(F)cc1F)c1ccccc1I [Compound 61.125, N-[(1S,2S)-2-(2,4-difluorophenyl)cyclobutyl]-2-iodobenzamide] | > 75 |
| Cn1cccc1C(=O)N[C@H]1CC[C@H]1c1ccc(F)cc1F [Compound 61.126, N-[(1S,2S)-2-(2,4-difluorophenyl)cyclobutyl]-1-methylpyrrole-2-carboxamide] | > 75 |
| Cn1cc(C(=O)N[C@H]2CC[C@H]2c2ccc(F)cc2F)c(C(F)F)n1 [Compound 61.127, 3-(difluoromethyl)-N-[(1S,2S)-2-(2,4-difluorophenyl)cyclobutyl]-1-methylpyrazole-4-carboxamide] | > 75 |
| O=C(N[C@H]1CC[C@H]1c1ccc(F)cc1F)c1sccc1Cl [Compound 61.129, 3-chloro-N-[(1S,2S)-2-(2,4-difluorophenyl)cyclobutyl]thiophene-2-carboxamide] | > 75 |
| O=C(N[C@H]1CC[C@H]1c1ccc(F)cc1F)c1c(F)cccc1C(F)(F)F [Compound 61.131, N-[(1S,2S)-2-(2,4-difluorophenyl)cyclobutyl]-2-fluoro-6-(trifluoromethyl)benzamide] | > 75 |
| O=C(N[C@H]1CC[C@H]1c1ccc(F)cc1F)c1cccnc1Cl [Compound 61.133, 2-chloro-N-[(1S,2S)-2-(2,4-difluorophenyl)cyclobutyl]pyridine-3-carboxamide] | > 75 |
| O=C(N[C@H]1CC[C@H]1c1ccc(F)cc1F)c1ncsc1Br [Compound 61.136, 5-bromo-N-[(1S,2S)-2-(2,4-difluorophenyl)cyclobutyl]-1,3-thiazole-4-carboxamide] | > 75 |
| O=C(N[C@H]1CC[C@H]1c1ccc(F)cc1F)c1ccsc1C(F)(F)F [Compound 61.137, N-[(1S,2S)-2-(2,4-difluorophenyl)cyclobutyl]-2-(trifluoromethyl)thiophene-3-carboxamide] | > 75 |
| Cc1ncccc1C(=O)N[C@H]1CC[C@H]1c1ccc(F)cc1F [Compound 61.140, N-[(1S,2S)-2-(2,4-difluorophenyl)cyclobutyl]-2-methylpyridine-3-carboxamide] | > 75 |
| O=C(N[C@H]1CC[C@H]1c1ccc(F)cc1F)c1ncccc1Cl [Compound 61.141, 3-chloro-N-[(1S,2S)-2-(2,4-difluorophenyl)cyclobutyl]pyridine-2-carboxamide] | > 75 |
| O=C(N[C@H]1CC[C@H]1c1ccc(F)cc1F)c1sccc1Br [Compound 61.143, 3-bromo-N-[(1S,2S)-2-(2,4-difluorophenyl)cyclobutyl]thiophene-2-carboxamide] | > 75 |
| Cc1occc1C(=O)N[C@H]1CC[C@H]1c1ccc(F)cc1F [Compound 61.144, N-[(1S,2S)-2-(2,4-difluorophenyl)cyclobutyl]-2-methylfuran-3-carboxamide] | > 75 |
| O=C(N[C@H]1CC[C@H]1c1ccc(F)cc1F)c1ncccc1Br [Compound 61.146, 3-bromo-N-[(1S,2S)-2-(2,4-difluorophenyl)cyclobutyl]pyridine-2-carboxamide] | > 75 |
| O=C(N[C@H]1CC[C@H]1c1ccc(F)cc1F)c1ncccc1C(F)(F)F [Compound 61.151, N-[(1S,2S)-2-(2,4-difluorophenyl)cyclobutyl]-3-(trifluoromethyl)pyridine-2-carboxamide] | > 75 |
| O=C(N[C@H]1CC[C@H]1c1ccc(Cl)cc1Cl)c1nccnc1Br [Compound 61.162, 3-bromo-N-[(1S,2S)-2-(2,4-dichlorophenyl)cyclobutyl]pyrazine-2-carboxamide] | > 75 |
| O=C(N[C@H]1CC[C@H]1c1ccc(Cl)cc1Cl)c1nnccc1C(F)(F)F [Compound 61.167, N-[(1S,2S)-2-(2,4-dichlorophenyl)cyclobutyl]-4-(trifluoromethyl)pyridazine-3-carboxamide] | > 75 |
| O=C(N[C@H]1CC[C@H]1c1ccc(Cl)cc1Cl)c1ccoc1Br [Compound 61.173, 2-bromo-N-[(1S,2S)-2-(2,4-dichlorophenyl)cyclobutyl]furan-3-carboxamide] | > 75 |
| O=C(N[C@H]1CC[C@H]1c1ccc(Cl)cc1Cl)c1ccoc1C(F)(F)F [Compound 61.174, N-[(1S,2S)-2-(2,4-dichlorophenyl)cyclobutyl]-2-(trifluoromethyl)furan-3-carboxamide] | > 75 |

Tested on: Meloidogyne spp.
Experiment: Meloidogyne spp. (root-knot nematode), nematicide, contact activity, preventive: cucumber seed in filter paper pouch
Type: in vivo
Conditions: 288 h, cucumber cv. Toshka seed in pouch, 3000 eggs, twelve days, read-out: reduction of galling compared to the untreated control
Method: Meloidogyne spp. (Root-Knot Nematode) Nematicide, Contact Activity, Preventive. Filter papers (9 cm×4.5 cm) with a small pocket were placed into plastic pouches (12 cm×6 cm). One cucumber cv. Toshka seed was placed in the centre of the filter paper pocket of all the pouches needed for a test. The cucumber seeds in the pouches were treated with test solutions at 200 ppm by pipetting the solution directly over the cucumber seed in the filter paper pocket in the pouch. Prior to application, the compound solution was prepared at twice the concentration required and the egg suspension is prepared with FORL nutrient solution with 3000 eggs/0.5 ml. After applying all the treatments, 3000 eggs (in 0.5 ml of FORL nutrient solution) were pipetted into the pouches. The pouches were incubated in a moist chamber for twelve days and watered regularly to maintain good filter paper moisture essential for the growing cucumber root system. After this period, the filter paper containing the germinated cucumber seedling was removed from the plastic pouch to assess the number of galls caused by Meloidogyne spp. per root system. Phytotoxicity was measured as a reduction of growth of the emerged cucumber seedling in comparison to the control.

| Structure (SMILES) | pest or weed control at 200 ppm [%] |
| --- | --- |
| Cc1ncccc1C(=O)N[C@H]1CC[C@H]1c1ccc(Cl)cc1Cl [Compound 61.7, N-[(1S,2S)-2-(2,4-dichlorophenyl)cyclobutyl]-2-methylpyridine-3-carboxamide] | > 80 |
| O=C(N[C@H]1CC[C@H]1c1ccc(Cl)cc1Cl)c1ccccc1Br [Compound 61.8, 2-bromo-N-[(1S,2S)-2-(2,4-dichlorophenyl)cyclobutyl]benzamide] | > 80 |
| O=C(N[C@H]1CC[C@H]1c1ccc(Cl)cc1)c1c(F)cccc1C(F)(F)F [Compound 61.41, N-[(1S,2S)-2-(4-chlorophenyl)cyclobutyl]-2-fluoro-6-(trifluoromethyl)benzamide] | > 80 |
| O=C(N[C@H]1CC[C@H]1c1ccc(Cl)cc1Cl)c1ncccc1Br [Compound 61.60, 3-bromo-N-[(1S,2S)-2-(2,4-dichlorophenyl)cyclobutyl]pyridine-2-carboxamide] | > 80 |

— patent publication USRE50724E1, “4-membered ring carboxamides used as nematicides” (SYNGENTA CROP PROTECTION AG, priority 2013, dated 2026)
